This passage reports pKa results from the pKa sets of Baltruschat and Czodrowski (2020).

Values joined by “and” are separate entries in the source; they are usually repeats but may differ in a detail not shown here. Equal values may be shown once.

As usually defined, the pKa is the pH at which an ionisable group is half protonated. High values mean a group that holds its proton tightly, low ones a group that gives up its proton readily.

As for `O=C(O[C@@H]1C[C@H]2CC[C@@H](C1)N2)[C@H](CO)c1ccccc1`, the pKa (basic group) was 10.3. Regarding `CC(C)(C(N)=O)S(N)(=O)=O`, the pKa (acidic group) came to 9.92. The compound `COc1ccc(/N=N/c2c(N)n[nH]c2N)cc1` registered a pKa (basic group) of 3.39. Compound `CCN1CCC=C1C` gave a pKa (basic group) of 11.9. `N#C/C(=C\C(=O)O)c1ccccc1` gave a pKa (acidic group) of 3.07.

The compound `CCN(CC)C(C)(C)C=O` came in with a pKa (basic group) of 8.3.

As for `O=[N+]([O-])c1ccccc1B(O)O`, the pKa (acidic group) was found to be 8.52. Still for that read-out and setting: next, `[O-]c1cc(O)c2ccccc2[nH+]1`: 5.86; `O=C(O)Cc1nnnn1-c1ccccc1`: 3.1.

With `C[C@]1([NH3+])C[C@@H]1N`, where the note is “basic group”, the pKa stood at 5.83. Compound `O=C(O)CCc1ccsc1` had a pKa (acidic group) of 4.45.

Regarding `[NH3+][C@@H](Cc1c[nH]cn1)C(=O)N[C@@H](Cc1c[nH]c[nH+]1)C(=O)[O-]`, for the setting “basic group”, the pKa came to 5.6. Where the note is “acidic group”, `C#CCCC(=O)O` yielded a pKa of 4.2.

Take `NCCc1ccncc1`: the pKa (basic group) was determined as 9.37. Still for that read-out and setting: next, `Cc1c(N)ccc2c1-c1ccccc1C2`: 4.83; `Cc1cnc2c(ccc3c(C)ccnc32)c1`: 5.57. On the same count and under the same terms, to `CC(C=C(c1cccs1)c1cccs1)N1CCCCC1C` (configuration not stated) belongs 7.46; to `CCS[C@@H]1C(O)C2CC(=O)CC1N2C` (some centres not stated), 4.9 and 5.4. `CC(=O)[n+]1ccccc1` showed a pKa (acidic group) of 5.32. On the same count and under the same terms, next, `C[NH+](C)Cc1ccc(NC(=O)/C=N/O)cc1`: 8.43; `Cc1ccc(S(=O)(=O)NCCC(N)=[NH2+])cc1`: 9.49.

Consider `Nc1nc2ncncc2[nH]1`, for which the pKa is 9.36 (acidic group) and 4.68 (basic group). `NS(=O)(=O)c1nnc(Nc2ccccc2)s1` came in with a pKa (acidic group) of 7.7. For `Clc1cncc(Cl)c1`, the pKa (basic group) was found to be 0.55. Compound `[NH3+]CCc1c[nH]cn1` had a pKa (basic group) of 6.08. The compound `O=C([O-])/C=C/c1ccccc1O` gave a pKa (acidic group) of 9.63.

For `CN1CCCC[C@H]1c1cccnc1`, the pKa (basic group) turned out to be 5.42. Still for that read-out and setting: to `CCCCCN(CCO)CC(C)O` (configuration not stated) belongs 8.9. For the compound `CC(C)([SeH])C[NH3+]`, the pKa (acidic group) worked out at 5.21. With `FC(F)(F)c1ccc2cccnc2c1`, the pKa (basic group) amounted to 3.16. Consider `C/N=C1/CCCCC1C` (configuration not stated), for which the pKa (basic group) is 9.47. With `N#Cc1ccccc1O`, the pKa (acidic group) was found to be 7.32. Take `Nc1nc([S-])[nH+]c([O-])c1C1=CCCCC1`: the pKa (basic group) turned out to be 7.11. For the setting “acidic group”, `C[N+](C)(C)O` gave a pKa of 4.65.

As to `CCn1nc(-c2ccccc2)sc1=N`, where the note is “basic group”, the pKa was found to be 6.1. Still for that read-out and setting: to `Cn1c(=O)c2[nH]c[nH+]c2n(C)c1=O` belongs 0.7; to `Clc1cnc2c(ccc3cccnc32)c1`, 3.99. As for `C/C=C/C=C/C(=O)O`, the pKa (acidic group) turned out to be 4.53.

In the case of `CC(C)(C)c1ccc(N)cc1`, the pKa (basic group) was found to be 4.95.

Consider `NCCNCCO`, for which the pKa (basic group) turned out to be 9.67. Under “acidic group”, `O=S(=O)([O-])c1cc(O)c2[nH]ncc2c1` gave a pKa of 8. Take `COC(=O)c1ccc2ncccc2c1`: the pKa (basic group) is 3.8.

`CCCCN/C(C)=N/N(C)C`: under “basic group”, the pKa came out at 10.4. Take `Nc1ncc([N+](=O)[O-])cn1`: under “acidic group”, the pKa stood at 14.7.

Compound `CC(=O)C(=NO)C(C)=O` gave a pKa (acidic group) of 7.44. Compound `N=C(c1ccccc1)c1ccccc1O` came in with a pKa (basic group) of 5. Where the note is “basic group”, `C1CCC(N2CCCC2)CC1` registered a pKa of 10.7.

Take `NNC(=O)C[NH3+]`: the pKa (basic group) was 2.38. In the case of `CCOC(=O)c1ccc(O)c([N+](=O)[O-])c1`, where the note is “acidic group”, the pKa came out at 5.44.

The compound `C[NH+]1C[C@@H](C(=O)O)C=C2c3cccc4[nH]cc(c34)C[C@@H]21` gave a pKa (acidic group) of 3.28. On the same count and under the same terms, next, `O=C(O)C[N+](=O)[O-]`: 1.63; `Cc1nn(-c2ccccc2)cc1C(=O)O`: 4.58. Still for that read-out and setting: to `Cc1ccc(C(=O)O)cc1` belongs 4.37.

In the case of `N#CCN`, under “basic group”, the pKa came out at 5.37. `O=C([O-])CCS`: for the setting “acidic group”, the pKa was determined as 10.3.

`O=C(O)C1(O)CCC1` yielded a pKa (acidic group) of 3.88. As to `COc1ccc(Nc2ccccc2)cc1`, the pKa (basic group) turned out to be 1.38.

In turn, `O/C(=C/c1cc[nH+]cc1)c1ccccc1` displayed a pKa (acidic group) of 4.19. Still for that read-out and setting: to `[NH-]S(=O)(=O)c1nnc(Nc2ccccc2)s1` belongs 11.1.

As to `CN(C)CCOC(c1ccccc1)c1ccc(Br)cc1` (configuration not stated), the pKa (basic group) came to 8.64.

Turning to `CCC1(CC)OC(=O)NC1=O`, the pKa (acidic group) was 5.7. Compound `N=c1c2ccccc2[nH]c2ccccc12` showed a pKa (basic group) of 9.99. The compound `C=C[C@]1(O)CN2CC[C@H]1C[C@@H]2[C@@H](O)c1ccnc2ccc(OC)cc12` displayed a pKa (basic group) of 7.24. The compound `CSc1ccc(N)c([N+](=O)[O-])c1` came in with a pKa (basic group) of -0.28. For `CCC1C(=O)C=C(C)OC1=O` (configuration not stated), the pKa (acidic group) came out at 5.3. `COC1CC2CCN1CC2` (configuration not stated): for the setting “basic group”, the pKa was 8.87. The compound `CCCn1ccnc1C=O` gave a pKa (basic group) of 5.15. Still for that read-out and setting: to `CCCCCCCCCCCCCN` belongs 10.6. On the same count and under the same terms, to `Cn1ccc(=O)c2ccccc21` belongs 2.36.

Take `CC(O)c1ccccc1` (configuration not stated): for the setting “basic group”, the pKa was -7. With `Nc1cccc(Br)c1`, for the setting “basic group”, the pKa was found to be 3.41.
